Results: patent US20060069132A1, “Azolecarboxamide herbicides” (priority 2004, published 2006)

Legend:
[1] = system: corn; experiment: Test B pre-/postemergence herbicide test; format: in vivo, Zea mays
Summary of the method: (§1)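 Flooded paddy rice and barnyardgrass were treated at the 2-leaf stage; upland plantings received compound either on sown seed or on 1- to 4-leaf seedlings. All were kept 13–15 days in a greenhouse and scored visually, 0–100, relative to untreated plants.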

[2] = system: blackgrass; experiment: Test B postemergence herbicide test; format: in vivo, Alopecurus myosuroides; details: scale 0 (no effect) to 100 (complete control)
Summary of the method: (§2)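 Plants grow to 1- to 4-leaf stage (2–18 cm) for postemergence spraying, or to 2-leaf stage for the paddy test. Formulated compound is applied. Greenhouse holding lasts 13–15 days. Response is scored visually relative to controls, 0 no effect to 100 complete control; a dash means no result.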

[3] = system: giant foxtail; experiment: Test B pre-/postemergence herbicide test; format: in vivo, Setaria faberi
Summary of the method: as §1

[4] = system: rice; experiment: Test C flooded paddy test; format: in vivo, Oryza sativa
Summary of the method: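 Plants were grown to the 1- to 4-leaf stage (2–18 cm) and then treated postemergence, or grown to the 2-leaf stage for the flooded paddy test. They were held in a greenhouse for 12 to 14 days and then scored by eye against controls, where 0 is no effect and 100 is complete control.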

[5] = system: rice; experiment: Test B flooded paddy test; format: in vivo, Oryza sativa; details: 1000 g ai/ha, visual rating, scale 0 to 100 (0 no effect, 100 complete control), 13 to 15 days
Summary of the method: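 After treating 2-leaf paddy plants or 2–18 cm postemergence plants (1 to 4 leaves) with formulated chemical, researchers kept them in a greenhouse for 13–15 days. Effects were judged visually versus controls: 0 indicates none, 100 total control.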

[6] = system: large crabgrass; experiment: Test B pre-/postemergence herbicide test; format: in vivo, Digitaria sanguinalis
Summary of the method: as §1

[7] = system: small flower umbrella sedge; experiment: Test B flooded paddy test; format: in vivo, Cyperus difformis; details: 1000 g ai/ha, visual rating, scale 0 to 100 (0 no effect, 100 complete control), 13 to 15 days
Summary of the method: as §2

[8] = system: barnyardgrass; experiment: Test C flooded paddy test; format: in vivo, Echinochloa crus-galli
Summary of the method: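 Greenhouse test with a 12–14 day hold after application and visual comparison with controls. Emerged plants were 1- to 4-leaf stage (2–18 cm) when sprayed postemergence, and the paddy barnyardgrass was at 2 leaves under flooded conditions. 100 = complete control.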

[9] = system: ducksalad; experiment: Test C flooded paddy test; format: in vivo, Heteranthera limosa
[10] = system: wild oat; experiment: Test B postemergence herbicide test; format: in vivo, Avena fatua; details: scale 0 (no effect) to 100 (complete control)
Summary of the method: (§3)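 Formulated test chemicals went onto postemergence plants measuring 2 to 18 cm, at one to four leaves. For the paddy assay, species had reached two leaves. Scoring took place 13–15 days later by eye, relative to untreated plants, using 0 for no effect up to 100 for full control.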

[11] = system: rice; experiment: Test B pre-/postemergence herbicide test; format: in vivo, Oryza sativa; details: preemergence, 125 g ai/ha; 0 to 100 scale, 0 is no effect, 100 is complete control
Summary of the method: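 Evaluation is visual, comparing treated with control plants on a scale where 0 means no effect and 100 means full control. Treatments were preemergence, or postemergence on seedlings 2–18 cm tall, and held 13–15 days in the greenhouse.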

[12] = system: morningglory; experiment: Test B pre-/postemergence herbicide test; format: in vivo, Ipomoea coccinea
Summary of the method: (§4)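 Species tested were Echinochloa crus-galli, Ipomoea coccinea, Xanthium strumarium and Oryza sativa, treated both before emergence and at the 1- to 4-leaf stage; rice and barnyardgrass were also tested under flooding at 2 leaves. Greenhouse incubation lasted 13–15 days before visual 0–100 scoring.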

[13] = system: ducksalad; experiment: Test B flooded paddy test; format: in vivo, Heteranthera limosa; details: 1000 g ai/ha, visual rating, scale 0 to 100 (0 no effect, 100 complete control), 13 to 15 days
Summary of the method: as §2

[14] = system: cocklebur; experiment: Test B pre-/postemergence herbicide test; format: in vivo, Xanthium strumarium
Summary of the method: as §4

[15] = system: Surinam grass; experiment: Test B pre-/postemergence herbicide test; format: in vivo, Urochloa decumbens
Summary of the method: as §1

[16] = system: barnyardgrass; experiment: Test B flooded paddy test; format: in vivo, Echinochloa crus-galli; details: 1000 g ai/ha, visual rating, scale 0 to 100 (0 no effect, 100 complete control), 13 to 15 days
Summary of the method: as §2

[17] = system: pigweed; experiment: Test B pre-/postemergence herbicide test; format: in vivo, Amaranthus retroflexus
Summary of the method: as §1

[18] = system: lambsquarters; experiment: Test B pre-/postemergence herbicide test; format: in vivo, Chenopodium album
Summary of the method: as §1

[19] = system: wheat; experiment: Test B postemergence herbicide test; format: in vivo, Triticum aestivum; design: key to Wheat plant response rating: 0 = no effect, 100 = complete control; details: scale 0 (no effect) to 100 (complete control)
Summary of the method: as §3

[20] = system: smallflower umbrella sedge; experiment: Test C flooded paddy test; format: in vivo, Cyperus difformis
[21] = system: barnyardgrass; experiment: Test B pre-/postemergence herbicide test; format: in vivo, Echinochloa crus-galli
Summary of the method: as §4

[22] = system: velvetleaf; experiment: Test B pre-/postemergence herbicide test; format: in vivo, Abutilon theophrasti
Summary of the method: as §1

[23] = Postemergence, 500 g ai/ha, visual rating after 13 to 15 days, scale 0 (no effect) to 100 (complete control)
[24] = Preemergence, 500 g ai/ha, scale 0 to 100
[25] = postemergence, 125 g ai/ha, visual rating, scale 0 (no effect) to 100 (complete control)
[26] = preemergence, 125 g ai/ha, 0 to 100 scale, 0 is no effect, 100 is complete control
[27] = Postemergence, 500 g ai/ha, visual rating after 13 to 15 days
[28] = postemergence, 125 g ai/ha, visual rating
[29] = 62 g ai/ha, scale 0 to 100 (0 no effect, 100 complete control)
[30] = 125 g ai/ha, scale of 0 to 100, 0 is no effect, 100 is complete control
[31] = 250 g ai/ha, scale of 0 to 100, 0 is no effect, 100 is complete control
[32] = 500 g ai/ha, visual rating after 12 to 14 days, scale 0 to 100 (0 no effect, 100 complete control)

SMILES: CCOC(=O)c1cc(NC(=O)c2cc(C(C)(C)C)nn2CC)c(F)cc1OC [Compound 76]
- Plant response rating, Corn [1, 23]: 30
- Corn plant response rating [1, 24]: 50
- Corn plant response rating [1, 25]: 10
- Plant response rating, Corn [1, 26]: 30
- Plant response rating, Blackgrass [2, 27]: 50
- Blackgrass plant response rating [2, 28]: 10
- Plant response rating, Foxtail, Giant [3, 23]: 40
- Foxtail, Giant plant response rating [3, 24]: 100
- Foxtail, Giant plant response rating [3, 25]: 20
- Plant response rating, Foxtail, Giant [3, 26]: 90
- Rice plant response rating [4, 29]: 75
- Rice plant response rating [4, 30]: 80
- Rice plant response rating [4, 31]: 85
- Plant response rating, Rice [4, 32]: 90
- Rice plant response rating [5]: 60
- Plant response rating, Crabgrass, Large [6, 23]: 20
- Crabgrass, Large plant response rating [6, 24]: 90
- Crabgrass, Large plant response rating [6, 25]: 10
- Plant response rating, Crabgrass, Large [6, 26]: 80
- Sedge, Umbrella plant response rating [7]: 60
- Barnyardgrass plant response rating [8, 29]: 50
- Barnyardgrass plant response rating [8, 30]: 70
- Barnyardgrass plant response rating [8, 31]: 80
- Plant response rating, Barnyardgrass [8, 32]: 90
- Ducksalad plant response rating [9, 29]: 45
- Ducksalad plant response rating [9, 30]: 50
- Ducksalad plant response rating [9, 31]: 75
- Plant response rating, Ducksalad [9, 32]: 80
- Plant response rating, Oat, Wild [10, 27]: 40
- Oat, Wild plant response rating [10, 28]: 30
- Plant response rating, Rice [11]: 50
- Plant response rating, Morningglory [12, 23]: 10
- Morningglory plant response rating [12, 25]: 10
- Plant response rating, Morningglory [12, 26]: 10
- Ducksalad plant response rating [13]: 100
- Plant response rating, Cocklebur [14, 23]: 90
- Cocklebur plant response rating [14, 24]: 40
- Cocklebur plant response rating [14, 25]: 40
- Plant response rating, Surinam Grass [15, 23]: 20
- Surinam Grass plant response rating [15, 25]: 20
- Plant response rating, Surinam Grass [15, 26]: 70
- Barnyardgrass plant response rating [16]: 70
- Plant response rating, Pigweed [17, 23]: 100
- Pigweed plant response rating [17, 25]: 100
- Plant response rating, Pigweed [17, 26]: 100
- Plant response rating, Lambsquarters [18, 23]: 60
- Lambsquarters plant response rating [18, 25]: 30
- Plant response rating, Lambsquarters [18, 26]: 50
- Plant response rating, Wheat [19, 27]: 30
- Wheat plant response rating [19, 28]: 20
- Sedge, Umbrella plant response rating [20, 29]: 80
- Sedge, Umbrella plant response rating [20, 30]: 85
- Sedge, Umbrella plant response rating [20, 31]: 85
- Plant response rating, Sedge, Umbrella [20, 32]: 90
- Plant response rating, Barnyardgrass [21, 23]: 20
- Barnyardgrass plant response rating [21, 24]: 100
- Barnyardgrass plant response rating [21, 25]: 10
- Plant response rating, Barnyardgrass [21, 26]: 80
- Plant response rating, Velvetleaf [22, 23]: 40
- Velvetleaf plant response rating [22, 25]: 40
- Plant response rating, Velvetleaf [22, 26]: 30
